Assay in all cases: inhibition of tumour cell growth, NCI panel, 48 h
For test [1], the system named is A549.
Test [2] relates to BT-549.
Test [3] concerns HCC 2998.
Test [4] relates to HCT-116.
The test system of test [5] is HT-29.
Test [6] relates to IGROV-1.
Test [7] has as its system K562.
Test [8] deals with MDA-MB-231.
Test [9] has as its system Malme-3M.
The subject of test [10] is OVCAR-4.
Test [11] concerns PC-3.
Test [12] relates to RPMI-8226.
Test [13] relates to SF-295.
In test [14] the test system is SK-MEL-28.
In test [15] the test system is SK-MEL-2.
The subject of test [16] is SN12C.
The test system of test [17] is SNB-19.
The test system of test [18] is SR.
Test [19] deals with SW-620.
For test [20], the system named is UO-31.

Molecules are shown by their SMILES.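 96-well plates; 48 h exposure; 5 concentrations. Endpoints by linear interpolation between flanking doses. Not reached: highest tested concentration assigned. At the GI50, growth is halved.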 Activity calls are given as the source filed them. Cut-off read from the data, not from the text of the source: active = GI50 up to about 1.1 µM and inactive = higher.

Consider `C=C1CC2(CC(c3ccccc3Cl)OC(c3ccccc3Cl)C2)OC1=O` (configuration not stated), for which the GI50 in test [1] was 7.74 µM (inactive); in test [2], 2.02 µM (inactive); in test [3], 3.52 µM (inactive); in [4], 1.76 µM (inactive); in test [5], 2.55 µM (inactive); in test [6] it was 2.02 µM (inactive). Also, the GI50 was 2.26 µM (inactive) in test [7]; 1.85 µM (inactive) in test [8]; 3.57 µM (inactive) in test [9]; 3.9 µM (inactive) in [10]; 2.89 µM (inactive) in [11]; 0.752 µM (active) in test [12]. Further, the GI50 in [13] was 8.97 µM (inactive); in [14], 1.87 µM (inactive); in [15], 3.43 µM (inactive); in [16], 2.37 µM (inactive); in test [17], 15.2 µM (inactive); in [18], 2.52 µM (inactive). For the same compound, the GI50 in test [19] was 1.98 µM (inactive); in test [20] it was 5.89 µM (inactive).

On to `COc1cc(C2SCC(=O)N2c2ccc(-n3c(-c4ccccc4)nc4ccccc4c3=O)cc2)ccc1O` (configuration not stated), for which the GI50 was 74.8 µM (inactive) in test [1]; > 100 µM (inactive) in test [2]; 58.3 µM (inactive) in [3]; 50.1 µM (inactive) in test [4]; > 100 µM (inactive) in [5]; > 10 µM (inactive) in [6]. Further, the GI50 in test [7] was > 100 µM (inactive); in test [8], 97.9 µM (inactive); in test [9], 54.7 µM (inactive); in test [10], 65.6 µM (inactive); in test [11] it was > 100 µM (inactive); in test [12], 76.4 µM (inactive). In addition, the GI50 was 84.5 µM (inactive) in test [13]; > 100 µM (inactive) in test [14]; > 100 µM (inactive) in [15]; > 100 µM (inactive) in [17]; 26 µM (inactive) in test [18]; > 100 µM (inactive) in [19]. Also, the GI50 in test [20] was 11.8 µM (inactive).

For the compound `CC(=O)c1ccc(Nc2nc3ccccc3c3occc23)cc1`, the GI50 in [1] was 11.1 µM (inactive); in [2], 19.8 µM (inactive); in test [3], 6.89 µM (inactive); in test [4], 11.4 µM (inactive); in test [5], 4.16 µM (inactive); in test [6], 9.06 µM (inactive). The GI50 in test [8] was 13.1 µM (inactive); in [9] it was 23.3 µM (inactive); in test [10] it was 1.79 µM (inactive); in test [11], 22.4 µM (inactive); in [12], 5.48 µM (inactive); in test [13] it was 6.31 µM (inactive). The GI50 was 2.34 µM (inactive) in [14]; 14.6 µM (inactive) in [15]; 31.9 µM (inactive) in test [16]; 34.8 µM (inactive) in test [17]; 2.92 µM (inactive) in [18]; 20.4 µM (inactive) in test [20].

With `COc1cc2c(cc1OC)C(=O)N(c1ccc(OCCN3CCCC3)cc1)C2=O`, the GI50 in [1], in [2], in test [3], in [4], in test [5] and in [6] was > 100 µM (inactive) in each case. The GI50 was > 100 µM (inactive) in test [7]; > 100 µM (inactive) in test [8]; 20.8 µM (inactive) in [9]; > 100 µM (inactive) in [10]; > 100 µM (inactive) in [11]; > 100 µM (inactive) in [12]. For the same compound, the GI50 in [13], in [14], in test [15], in [16], in test [17] and in test [18] was > 100 µM (inactive) each time. Also, in test [19], the GI50 is > 100 µM (inactive).

With `Nc1nc(N)c2c(-c3ccccc3)ccnc2n1`, the GI50 in test [2], in test [3], in test [4], in test [5], in test [6] and in [7] was > 100 µM (inactive) each time. The GI50 in test [8], in [9], in test [10], in [11], in test [12] and in [13] was > 100 µM (inactive) each time. In addition, the GI50 in test [14] was 40.5 µM (inactive); in [15], > 100 µM (inactive); in [16], > 100 µM (inactive); in test [17], > 100 µM (inactive); in test [18], > 100 µM (inactive); in [19], 39.7 µM (inactive). Further, the GI50 in [20] is > 100 µM (inactive).

For the compound `NNC(=S)N1CCN(C(=S)NN)CC1`, the GI50 in test [1] was > 100 µM (inactive); in [2] it was > 100 µM (inactive); in test [3], > 100 µM (inactive); in test [4] it was > 100 µM (inactive); in test [5] it was > 100 µM (inactive); in [6] it was 43.4 µM (inactive). Moreover, the GI50 was > 100 µM (inactive) in test [8]; > 100 µM (inactive) in test [9]; 28.8 µM (inactive) in test [10]; > 100 µM (inactive) in [11]; > 100 µM (inactive) in test [12]; > 100 µM (inactive) in test [13]. Moreover, the GI50 in [14], in [15], in [16], in [17], in [18] and in test [19] was > 100 µM (inactive) in each case. For the same compound, the GI50 in test [20] was > 100 µM (inactive).

In the case of `CCCCCCCCCCCCc1ccsc1-c1ccc(-c2ccc(-c3sc(-c4cc(CCCCCCCCCCCC)c(-c5ccc(-c6ccc(-c7sccc7CCCCCCCCCCCC)s6)s5)s4)cc3CCCCCCCCCCCC)s2)s1`, the GI50 in test [1], in test [2], in test [3], in [4], in [5] and in test [6] was > 100 µM (inactive) each time. Moreover, the GI50 in test [7], in [8], in test [10], in [11], in test [12] and in test [13] was > 100 µM (inactive) each time. The GI50 was > 100 µM (inactive) in test [14]; > 100 µM (inactive) in test [15]; > 100 µM (inactive) in test [16]; > 100 µM (inactive) in test [17]; 22.8 µM (inactive) in test [18]; > 100 µM (inactive) in test [19]. Further, the GI50 in [20] was > 100 µM (inactive).

For `Nc1ccccc1N/C(=C\C(=O)C(Cl)(Cl)Cl)c1ccccc1`, the GI50 in test [1] was 28.8 µM (inactive); in test [2] it was 25.7 µM (inactive); in test [3], 17.3 µM (inactive); in test [4], 16.1 µM (inactive); in test [5], 27.4 µM (inactive); in [6], 5.6 µM (inactive). In addition, the GI50 in [7] was 30.2 µM (inactive); in [8], 15.2 µM (inactive); in test [9], 16.8 µM (inactive); in test [10], 29.2 µM (inactive); in test [11], 22.5 µM (inactive); in [12], 23.1 µM (inactive). In addition, the GI50 was 36.6 µM (inactive) in test [13]; 35.5 µM (inactive) in [14]; 14.1 µM (inactive) in test [15]; 20.1 µM (inactive) in test [16]; 36.9 µM (inactive) in test [17]; 28.2 µM (inactive) in test [18]. Also, the results for the GI50 in test [19] and in test [20] were 28.8 µM (inactive) and 17.2 µM (inactive), respectively.

In the case of `c1ccc2c(c1)CCN1CCc3ccccc3C1C2` (configuration not stated), the GI50 is 35.8 µM (inactive) in test [1]; 80.7 µM (inactive) in test [2]; 31.4 µM (inactive) in test [3]; 17.5 µM (inactive) in test [4]; 28.2 µM (inactive) in test [5]; 48 µM (inactive) in test [6]. The GI50 in test [7] was 31.2 µM (inactive); in [8] it was 42.3 µM (inactive); in test [9] it was > 100 µM (inactive); in test [10], > 100 µM (inactive); in test [11], 43.7 µM (inactive); in test [12], 43 µM (inactive). Further, the GI50 in test [13] was 26.9 µM (inactive); in test [14], 59.6 µM (inactive); in [15], 51.2 µM (inactive); in test [16], 43.4 µM (inactive); in test [17], 82.8 µM (inactive); in test [18], 47.8 µM (inactive). Also, the results for the GI50 in [19] and in test [20] were 64.6 µM (inactive) and 18.1 µM (inactive), respectively.

`O=C(NO)NCCCl`: the GI50 in test [1], in test [2], in test [3], in [4], in [5] and in [6] was > 100 µM (inactive) throughout. In addition, the GI50 in test [7], in test [8], in test [9], in test [10], in test [11] and in test [12] was > 100 µM (inactive) each time. Also, the GI50 in test [13], in test [15], in [16], in test [17], in [18] and in test [19] was > 100 µM (inactive) each time. The GI50 in [20] was > 100 µM (inactive).

(Values after ChEMBL document CHEMBL1201862, “PubChem BioAssay data set” (2004).)
